Here are results for 3 compounds from US20110195987A1, “TREATMENT WITH CHOLINERGIC AGONISTS” (priority 2009, published 2011).

Common to all, as to type: in vivo, human
A short description of series [1]: Case studies: vaginal dryness / vaginal secretions in female patients. The protocol:
(§1) A second patient two, suffering from painful intercourse and vaginal dryness and discomfort, also used oral pilocarpine at a dose of 2.5-5 mg BID. […] A trial of intra-vaginal administration of pilocarpine, starting at a dose of 1/4 of a 5 mg tablet daily at night was tried. […] The patient had previously tried HRT without much improvement. The improvement in vaginal symptoms was stunning.
(§2) A third patient has had problems with vaginal dryness and painful intercourse for several years. Oral hormone replacement therapy consisting of both estradiol and PROMETRIUM (progesterone), had provided no relief for their vaginal symptoms. They were started on oral Evoxac, 30 mg daily. After a week, they administered 30 mg cevimeline mixed with a small amount of yogurt directly in the vagina nightly. They have reported improvement in both vaginal dryness and pain on intercourse and continues on the treatment.
They were started on oral pilocarpine, 5 mg twice a day. Within a few days, they noticed marked improvement in their symptoms, i.e., a reduction in vaginal dryness and symptoms associated with urinary tract infections. […]
(§3) Their symptoms consisted of vaginal and pelvic pain as well as signs of urinary tract infections with trace positive cultures. Prior attempts to treat urinary tract infections with antibiotics often failed. They began a regimen of oral pilocarpine, 5 mg twice a day, for a week followed by 5 mg pilocarpine administered directly to the vagina nightly for a week. Subsequently, the amount of pilocarpine was increased to 10 mg directly administered to the vagina nightly. […] Additionally, they reported a reduction in pelvic pain and vaginal dryness a few days after commencing intravaginal administration of 10 mg pilocarpine.

Series [2] is described as follows: Case studies: painful intercourse in female patients. The protocol:
as §1, §2
(§4) They began a week long regimen of oral pilocarpine, 5 mg twice a day, followed by 10 mg placed directly in the vagina nightly. They reported improvement in symptoms associated with urinary tract infections, vaginal dryness and painful intercourse. […] Formulation of the pilocarpine in a manner suitable for intravaginal administration will improve delivery of the pilocarpine and the efficacy of treatment.

Series [3] in a line: Case studies: side effects of oral versus intra-vaginal administration. The protocol:
(§5) In the case of a patient who has been diagnosed with IC for more than 8 years, no prior treatment has helped the episodes of pain, urinary frequency, and systemic symptoms mentioned above. […] However, the onset of breast cancer and its treatment have precluded the use of Hormone Replacement Therapy (HRT). Because of vaginal dryness, a trial of Evoxac (cevimeline HCl) capsules, 30 mg daily, by oral administration was tried. […] This lasted for about 2 months. The Evoxac was started on or about Apr. 5, 2009. […] Metoprolol at a dose of 12.5-25 mg/day was started to slow the heart rate. […] The Evoxac was restarted at a dose of 15 mg daily. A trial of intra-vaginal medication at a dose of 30 mg per vagina (powder was taken out of the capsule and instilled using a gel cap) was also tried.
as §1
(§6) […] They began and tolerated oral pilocarpine, 5 mg twice a day.

Series [4] in a line: Case studies: symptoms of interstitial cystitis (IC) in female patients. As for the experimental part: as §5, §3
Series [5] in a line: Case studies: urinary tract infections in female patients. As for the experimental part: […] […] They were started on oral pilocarpine, 5 mg twice a day. Within a few days, they noticed marked improvement in their symptoms, i.e., a reduction in vaginal dryness and symptoms associated with urinary tract infections.
as §6, §4

Series [6] can be described thus: Case study: vaginal yeast infections in patient. The settings on record: Case Study 5, patient one; oral 5 mg twice a day, approximately 8 months. The protocol: as §6
The mark [7] stands for this setting: Case Study 3, patient seven, oral 30 mg daily for a week, then 30 mg in yogurt directly in the vagina nightly.
[8] abbreviates: Case Study 1, patient three, 30 mg daily, oral.
The mark [9] stands for this setting: Case Study 2, patient two, intra-vaginal up to 7.5 mg daily.
Where [10] appears, read: Case Study 2, patient two, oral 2.5-5 mg BID.
Where [11] appears, read: Case Study 4, patient five, oral 5 mg twice a day, within a few days.
The mark [12] stands for this setting: Case Study 5, patient one, oral 5 mg twice a day, approximately 8 months.
[13] abbreviates: Case Study 6, patient six, oral 5 mg twice a day for a week, then 10 mg in the vagina nightly.
The mark [14] stands for this setting: Case Study 7, patient four, 10 mg intravaginal nightly, a few days after commencing.

On to `CC1OC2(CS1)CN1CCC2CC1` (stereo not drawn) [Evoxac, 2-methyspiro (1,3-oxathiolane-5,3) quinuclidine], for which the vaginal dryness result in series [1] (Case Study 1, patient three, capsules 30 mg daily, oral) is given as “improvement in vaginal dryness”; in series [1] (setting [7]), “improvement”. Moreover, in series [2] (setting [7]), the pain on intercourse entry was “improvement”. For the same compound, the side effects entry in series [3] (Case Study 1, patient three, 30 mg intra-vaginal) was “completely eliminated side-effects”; in series [3] (Case Study 1, patient three, oral administration, 30 mg daily), “nausea and rapid heart rate”. For the same compound, the “symptoms of IC” value in series [4] (Case Study 1, patient three, 15 mg daily oral, compared with prior treatment incl. Elmiron 100 mg TID four months) is reported as “improved the symptoms of IC better than any prior treatment”; in series [4] (setting [8]) it was “remitted”; in series [4] (Case Study 1, patient three, 30 mg intra-vaginal (powder in gel cap), compared with prior treatment incl. Elmiron 100 mg TID four months) it was “improved the symptoms of IC better than any prior treatment”. Also, the “duration of remission of IC symptoms” value in series [4] (setting [8]) was “about 2 months”. In series [4] (Case Study 1, patient three, stopped for a few weeks), the “symptoms of IC after discontinuing the medication” value is “symptoms of IC return within a week”.

Turning to `CC[C@@H]1C(=O)OC[C@@H]1Cc1cncn1C` [pilocarpine, (3S,4R)-3-ethyl-4-((1-methyl-1H-imidazol-5-yl)methyl)dihydrofuran-2(3H)-one], the vaginal secretions entry is “partial response” in series [1] (Case Study 2, patient two, intra-vaginal 2.5 mg daily); “improved greatly” in series [1] (Case Study 2, patient two, intra-vaginal 5 mg daily); “improved greatly” in series [1] (Case Study 2, patient two, intra-vaginal 7.5 mg daily); “an increase in vaginal secretions” in series [1] (Case Study 7, patient four, 5 mg directly to the vagina nightly, after the first week); “increased more significantly” in series [1] (Case Study 7, patient four, 10 mg directly to the vagina nightly). The “improvement in vaginal symptoms” value in series [1] (setting [9]) is given as “stunning”. Further, the vaginal dryness entry is “improved” in series [1] (setting [10]); “reduction” in series [1] (setting [11]); “no more vaginal dryness” in series [1] (setting [12]); “improvement” in series [1] (setting [13]); “reduction” in series [1] (setting [14]). Further, the “results of intermittent dosing” value in series [1] (Case Study 4, patient five, oral, taken intermittently) is “satisfactory results”. Moreover, in series [2] (setting [9]), the intercourse entry is given as “could enjoy intercourse for the first time in many months”. Moreover, in series [2] (setting [13]), the painful intercourse result is reported as “improvement”. The “symptoms associated with urinary tract infections” value is given as “reduction” in series [5] (setting [11]) and “improvement” in series [5] (setting [13]). Moreover, in series [5] (setting [12]), the urinary tract infections entry is “far fewer”. Moreover, the systemic symptoms result in series [3] (Case Study 2, patient two, intra-vaginal) was “no systemic symptoms”. Moreover, the side effects entry in series [3] (setting [10]) was “excess sweating and nausea”. Also, the tolerability result in series [3] (Case Study 5, patient one, oral 5 mg twice a day) is “tolerated”. The pelvic pain entry in series [4] (setting [14]) is “reduction”. The vaginal yeast infections result in series [6] is given as “far fewer”.

`CC(=O)[C@H]1CC[C@H]2[C@@H]3CCC4=CC(=O)CC[C@]4(C)[C@H]3CC[C@]12C` [PROMETRIUM, progesterone]: the “vaginal symptoms (vaginal dryness and painful intercourse)” value in series [1] (Case Study 3, patient seven, oral hormone replacement therapy, estradiol and PROMETRIUM together) was “no relief”.
